Source: BindingDB's records for doi:10.1021/acs.jmedchem.9b01562 (Lupin, 2019)
pIC50: −log10 of the molar value.

Columns and labels:
[1] = Inhibition of NS5A in HCV genotype 1b infected in human HuH7.5/Con1/SG-Neo(I)-hRluc2aUb cells assessed as inhibition of replicon levels incubated for 72 hrs by luciferase reporter gene assay
[2] = Inhibition of NS5A in HCV genotype 2a infected in human Huh7.5/J6/JFH1/EMCVIRES/hRlucNeo cells assessed as inhibition of replicon levels incubated for 72 hrs by luciferase reporter gene assay
[3] = Inhibition of NS5A in HCV genotype 1a infected in human HuH7.5/Con1/SG-Neo(I)-hRluc2aUb cells assessed as inhibition of replicon levels incubated for 72 hrs by luciferase reporter gene assay
[4] = Inhibition of NS5A in HCV genotype 3a infected in human HuH7.5/Con1/SG-Neo(I)-hRluc2aUb cells assessed as inhibition of replicon levels incubated for 72 hrs by luciferase reporter gene assay
[5] = Inhibition of NS5A in HCV genotype 4a infected in human HuH7.5/Con1/SG-Neo(I)-hRluc2aUb cells assessed as inhibition of replicon levels incubated for 72 hrs by luciferase reporter gene assay
[6] = Inhibition of NS5A in HCV genotype 6a infected in human HuH7.5/Con1/SG-Neo(I)-hRluc2aUb cells assessed as inhibition of replicon levels incubated for 72 hrs by luciferase reporter gene assay

Row | Structure (SMILES) | pIC50 [1] | pIC50 [2] | pIC50 [3] | pIC50 [4] | pIC50 [5] | pIC50 [6]
1 | COC(=O)N[C@H](C(=O)N1CCC[C@H]1c1ncc(-c2ccc3c(c2)OCC(C)(C)COc2cc(-c4cnc([C@@H]5CCCN5C(=O)[C@@H](NC(=O)OC)C(C)C)[nH]4)ccc2-3)[nH]1)C(C)C | 10.16 | 9.75 |  |  |  | 
2 | COC(=O)N[C@H](C(=O)N1CCC[C@H]1c1nc(Cl)c(-c2ccc3c(c2)OCCc2cc(-c4[nH]c([C@@H]5CCCN5C(=O)[C@@H](NC(=O)OC)C(C)C)nc4Cl)sc2-3)[nH]1)C(C)C | 11.10 | 8.89 |  |  |  | 
3 | COC(=O)N[C@H](C(=O)N1CCC[C@H]1c1ncc(-c2ccc3c(c2)CCc2cc(-c4cnc([C@@H]5CCCN5C(=O)[C@@H](NC(=O)OC)C(C)C)[nH]4)ccc2-3)[nH]1)C(C)C | 10.82 | 11.05 |  |  |  | 
4 | COC(=O)N[C@H](C(=O)N1CCC[C@H]1c1nc(Cl)c(-c2ccc3c(c2)CCCc2cc(-c4[nH]c([C@@H]5CCCN5C(=O)[C@@H](NC(=O)OC)C(C)C)nc4Cl)sc2-3)[nH]1)C(C)C | 10.70 | 10.28 |  |  |  | 
5 | COC(=O)N[C@H](C(=O)N1CCC[C@H]1c1ncc(-c2ccc(N3CCN(c4ccc(-c5cnc([C@@H]6CCCN6C(=O)[C@@H](NC(=O)OC)C(C)C)[nH]5)cc4)CC3)cc2)[nH]1)C(C)C | 9.58 | 8.34 |  |  |  | 
6 | COC(=O)N[C@H](C(=O)N1CCC[C@H]1c1ncc(-c2ccc3c(ccc4cc(-c5cnc([C@@H]6CCCN6C(=O)[C@@H](NC(=O)OC)C(C)C)[nH]5)sc43)c2)[nH]1)C(C)C | 10.92 | 11.30 | 10.57 | 10.33 | 11.52 | 10.55
7 | COC(=O)N[C@H](C(=O)N1CCC[C@H]1c1ncc(-c2ccc3c(c2)CCc2cc(-c4cnc([C@@H]5CCCN5C(=O)[C@@H](NC(=O)OC)C(C)C)[nH]4)sc2-3)[nH]1)C(C)C | 10.68 | 10.68 |  |  |  | 
8 | COC(=O)N[C@H](C(=O)N1CCC[C@H]1c1ncc(-c2ccc3c(c2)OCCc2cc(-c4cnc([C@@H]5CCCN5C(=O)[C@@H](NC(=O)OC)C(C)C)[nH]4)sc2-3)[nH]1)C(C)C | 10.66 | 7.97 |  |  |  | 
9 | COC(=O)N[C@H](C(=O)N1CCC[C@H]1c1nc(-c2ccc(-c3ccc(-c4c[nH]c([C@@H]5CCCN5C(=O)[C@@H](NC(=O)OC)C(C)C)n4)cc3)cc2)c[nH]1)C(C)C [BMS-790052] | 10.64 | 11.05 |  |  |  | 
10 | COC(=O)N[C@H](C(=O)N1CCC[C@H]1c1ncc(-c2ccc3c(ccc4sc(-c5cnc([C@@H]6CCCN6C(=O)[C@@H](NC(=O)OC)C(C)C)[nH]5)nc43)c2)[nH]1)C(C)C | 10.14 |  |  |  |  | 
11 | COC(=O)N[C@H](C(=O)N1CCC[C@H]1c1nc(Cl)c(-c2ccc3c(c2)OCCCOc2cc(-c4[nH]c([C@@H]5CCCN5C(=O)[C@@H](NC(=O)OC)C(C)C)nc4Cl)ccc2-3)[nH]1)C(C)C | 10.72 | 10.51 |  |  |  | 
12 | COC(=O)N[C@H](C(=O)N1CCC[C@H]1c1ncc(-c2ccc3c(c2)CCCc2cc(-c4cnc([C@@H]5CCCN5C(=O)[C@@H](NC(=O)OC)C(C)C)[nH]4)sc2-3)[nH]1)C(C)C | 10.68 | 9.10 |  |  |  | 
13 | COC(=O)N[C@H](C(=O)N1CCC[C@H]1c1ncc(-c2ccc(C34CCC(c5ccc(-c6cnc([C@@H]7CCCN7C(=O)[C@@H](NC(=O)OC)C(C)C)[nH]6)cc5)(CC3)CC4)cc2)[nH]1)C(C)C | 9.51 | 7.47 |  |  |  | 

More lines, in order of rising pIC50 [1], values ahead:

Row | pIC50 [1] | pIC50 [2] | pIC50 [3] | pIC50 [4] | pIC50 [5] | pIC50 [6] | Structure (SMILES)
14 | 8.43 | 8.40 |  |  |  |  | COC(=O)N[C@H](C(=O)N1CCC[C@H]1c1ncc(-c2ccc(N3CC4CC3CN4c3ccc(-c4cnc([C@@H]5CCCN5C(=O)[C@@H](NC(=O)OC)C(C)C)[nH]4)cc3)cc2)[nH]1)C(C)C
15 | 9.54 | 9.50 |  |  |  |  | COC(=O)N[C@H](C(=O)N1CCC[C@H]1c1ncc(-c2ccc3c(c2)OCCCOc2cc(-c4cnc([C@@H]5CCCN5C(=O)[C@@H](NC(=O)OC)C(C)C)[nH]4)ccc2-3)[nH]1)C(C)C
16 | 9.66 | 7.10 |  |  |  |  | CCc1nc([C@@H]2CCCN2C(=O)[C@@H](NC(=O)OC)C(C)C)[nH]c1-c1ccc2c(c1)OCC(C)(C)COc1cc(-c3[nH]c([C@@H]4CCCN4C(=O)[C@@H](NC(=O)OC)C(C)C)nc3CC)ccc1-2
17 | 9.71 | 8.89 |  |  |  |  | COC(=O)N[C@H](C(=O)N1CCC[C@H]1c1ncc(-c2ccc3c(c2)OCCCCOc2cc(-c4cnc([C@@H]5CCCN5C(=O)[C@@H](NC(=O)OC)C(C)C)[nH]4)ccc2-3)[nH]1)C(C)C
18 | 9.87 | 7.59 |  |  |  |  | COC(=O)N[C@H](C(=O)N1CCC[C@H]1c1ncc(-c2ccc(-c3ccc(-c4ccc(-c5cnc([C@@H]6CCCN6C(=O)[C@@H](NC(=O)OC)C(C)C)[nH]5)cc4)cc3)cc2)[nH]1)C(C)C
19 | 9.87 | 8.74 |  |  |  |  | COC(=O)N[C@H](C(=O)N1CCC[C@H]1c1ncc(-c2ccc3c(c2)OCC2(CC2)COc2cc(-c4cnc([C@@H]5CCCN5C(=O)[C@@H](NC(=O)OC)C(C)C)[nH]4)ccc2-3)[nH]1)C(C)C
20 | 9.94 | 8.17 |  |  |  |  | COC(=O)N[C@H](C(=O)N1CCC[C@H]1c1nc(C2CC2)c(-c2ccc3c(c2)OCC(C)(C)COc2cc(-c4[nH]c([C@@H]5CCCN5C(=O)[C@@H](NC(=O)OC)C(C)C)nc4C4CC4)ccc2-3)[nH]1)C(C)C
21 | 10.10 | 7.57 |  |  |  |  | COC(=O)N[C@H](C(=O)N1CCC[C@H]1c1ncc(-c2ccc3c(c2)CC2(C3)Cc3ccc(-c4cnc([C@@H]5CCCN5C(=O)[C@@H](NC(=O)OC)C(C)C)[nH]4)cc3C2)[nH]1)C(C)C
22 | 10.29 | 10.28 |  |  |  |  | COC(=O)N[C@H](C(=O)N1CCC[C@H]1c1ncc(-c2ccc3c(c2)OCCCOc2cc(-c4[nH]c([C@@H]5CCCN5C(=O)[C@@H](NC(=O)OC)C(C)C)nc4Cl)ccc2-3)[nH]1)C(C)C
23 | 10.68 | 9.47 |  |  |  |  | COC(=O)N[C@H](C(=O)N1[C@H]2CC[C@H](C2)[C@H]1c1ncc(-c2ccc3c(ccc4cc(-c5cnc([C@@H]6[C@@H]7CC[C@@H](C7)N6C(=O)[C@@H](NC(=O)OC)C(C)C)[nH]5)sc43)c2)[nH]1)C(C)C
24 | 10.68 | 9.17 |  |  |  |  | COC(=O)N[C@H](C(=O)N1CCC[C@H]1c1ncc(-c2ccc3c(c2)OCC(C)(C)COc2cc(-c4[nH]c([C@@H]5CCCN5C(=O)[C@@H](NC(=O)OC)C(C)C)nc4Cl)ccc2-3)[nH]1)C(C)C
25 | 10.70 | 10.52 | 10.51 | 10.12 | 11.05 | 10.26 | COC(=O)N[C@H](C(=O)N1CCC[C@H]1c1ncc(-c2ccc3c(c2)OCc2cc(-c4cnc([C@@H]5CCCN5C(=O)[C@@H](NC(=O)OC)C(C)C)[nH]4)sc2-3)[nH]1)C(C)C
26 | 10.89 | 10.96 |  |  |  |  | COC(=O)N[C@H](C(=O)N1CCC[C@H]1c1ncc(-c2ccc3c(ccc4cc(-c5cnc([C@@H]6[C@@H]7CC[C@@H](C7)N6C(=O)[C@@H](NC(=O)OC)C(C)C)[nH]5)sc43)c2)[nH]1)C(C)C
27 | 11.40 | 9.49 |  |  |  |  | COC(=O)N[C@H](C(=O)N1CCC[C@H]1c1nc(Cl)c(-c2ccc3c(c2)OCC(C)(C)COc2cc(-c4[nH]c([C@@H]5CCCN5C(=O)[C@@H](NC(=O)OC)C(C)C)nc4Cl)ccc2-3)[nH]1)C(C)C
